Measurements taken from ChEMBL document CHEMBL5365427, “Discovery and Structural Optimization of Covalent ZAP-70 Kinase Inhibitors against Psoriasis” (J Med Chem, 2023).
Activity calls are given as the source filed them. The rule behind the calls is not given here.

Assays:
[1] = molecular target: T1, Tyrosine-protein kinase SYK (Homo sapiens, UniProt P43405); experiment: Inhibition of SYK (unknown origin) using ULight-TK peptide as substrate at 1 uM incubated for 120 mins in presence of ATP by Lance Ultra Kinase assay relative to control
[2] = GSH reactivity of compound at pH 7.4 PBS buffer assessed as half life incubated for 180 min by HPLC-MS analysis; type: physicochemical; details: glutathione (GSH) in PBS buffer
[3] = molecular target: T1, Tyrosine-protein kinase SYK; experiment: Inhibition of SYK (unknown origin) using ULight-TK peptide as substrate incubated for 120 mins in presence of ATP by Lance Ultra Kinase assay
Splenocyte = experiment: Immunosuppressive activity in BALB/c mouse Splenocyte assessed as inhibition of concanavalin A induced T-cell proliferation incubated for 48 hrs by [3H]-thymidine incorporation based beta scintillation counter analysis; type: functional
[4] = molecular target: T2, Tyrosine-protein kinase ZAP-70 (Homo sapiens, UniProt P43403); experiment: Inhibition of ZAP-70 (unknown origin) using ULight-TK peptide as substrate incubated for 120 mins in presence of ATP by Lance Ultra Kinase assay
T2 sequence (P43403 whole entry): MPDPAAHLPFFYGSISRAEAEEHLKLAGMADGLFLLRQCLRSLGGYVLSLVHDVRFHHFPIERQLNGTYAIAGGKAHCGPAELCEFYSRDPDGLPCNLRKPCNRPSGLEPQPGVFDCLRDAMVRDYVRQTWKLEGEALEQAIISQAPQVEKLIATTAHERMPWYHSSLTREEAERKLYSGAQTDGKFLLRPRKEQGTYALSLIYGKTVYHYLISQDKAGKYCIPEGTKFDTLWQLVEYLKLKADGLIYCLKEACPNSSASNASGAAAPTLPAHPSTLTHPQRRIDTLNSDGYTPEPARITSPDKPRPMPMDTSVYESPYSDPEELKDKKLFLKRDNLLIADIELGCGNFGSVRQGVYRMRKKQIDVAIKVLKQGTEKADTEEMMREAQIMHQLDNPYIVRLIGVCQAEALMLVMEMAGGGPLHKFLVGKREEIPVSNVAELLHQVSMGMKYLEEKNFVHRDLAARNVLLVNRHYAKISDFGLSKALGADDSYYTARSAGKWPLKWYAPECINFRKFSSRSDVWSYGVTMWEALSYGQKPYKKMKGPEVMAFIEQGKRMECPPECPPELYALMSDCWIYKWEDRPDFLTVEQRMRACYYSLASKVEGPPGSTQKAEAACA

SMILES | inhibition [1] [%] | half-life [2] [h] | IC50 [3] [nM] | Activity (Splenocyte) | IC50 [4] [nM]
C=CC(=O)Nc1ccc(Cl)c(CNc2nc(Nc3cc(OC)cc(OC)c3)c(C(N)=O)c3nccn23)c1 | 6.8 | – | – | – | –
C=CC(=O)Nc1cc(CNc2nc(Nc3cc(OC)cc(OC)c3)c(C(N)=O)c3nccn23)ccn1 | 7 | 0.383 | – | – | –
C=CC(=O)N1CCCc2c(CNc3nc(Nc4cc(OC)cc(OC)c4)c(C(N)=O)c4nccn34)cccc21 | 10.9 | – | – | – | –
C=CC(=O)Nc1cc(CNc2nc(Nc3cc(OC)cc(OC)c3)c(C(N)=O)c3nccn23)ccc1Cl | 17.5 | 1.35 | > 10000 | – | –
C=CC(=O)Nc1cc(CNc2nc(Nc3cc(OC)cc(OC)c3)c(C(N)=O)c3nccn23)ccc1C | 15.1 | – | – | – | –
C=CC(=O)Nc1cc(CNc2nc(Nc3ccc(N4CCOCC4)cc3OC)c(C(N)=O)c3nccn23)ccc1Cl | 3.2 | – | – | – | –
C=CC(=O)Nc1cccc(CNc2nc(Nc3cc(OC)cc(OC)c3)c(C(N)=O)c3nccn23)c1Cl | 13.2 | – | – | – | –
C=CC(=O)Nc1cc(CNc2nc(Nc3ccc(N4CCCN(C)CC4)c(OC)c3)c(C(N)=O)c3nccn23)ccc1Cl | 71.2 | – | 1280 | Active | –
C=CC(=O)Nc1cc(Cl)cc(CNc2nc(Nc3cc(OC)cc(OC)c3)c(C(N)=O)c3nccn23)c1 | 8.2 | – | – | – | –
C=CC(=O)Nc1cccc(C(C)Nc2nc(Nc3cc(OC)cc(OC)c3)c(C(N)=O)c3nccn23)c1 (stereo unspecified) | 10.1 | – | – | – | –
C=CC(=O)Nc1cc(CNc2nc(Nc3cc(OC)cc(OC)c3)c(C(N)=O)c3nccn23)ccc1O | 9 | – | – | – | –
C=CC(=O)Nc1cc(F)cc(CNc2nc(Nc3cc(OC)cc(OC)c3)c(C(N)=O)c3nccn23)c1 | 0.8 | – | – | – | –
C=CC(=O)Nc1ccc2c(c1)CN(c1nc(Nc3cc(OC)cc(OC)c3)c(C(N)=O)c3nccn13)CC2 | 22.3 | – | – | – | –
C=CC(=O)Nc1cc(CNc2nc(Nc3ccc(N4CCOCC4)c(OC(C)C)c3)c(C(N)=O)c3nccn23)ccc1Cl | 27.6 | – | – | – | –
C=CC(=O)Nc1cc(CNc2nc(Nc3ccc(N4CCOCC4)c(OCC)c3)c(C(N)=O)c3nccn23)ccc1Cl | 82 | – | 641 | Active | –
C=CC(=O)Nc1cc(CNc2nc(Nc3cc(OC)cc(N4CCOCC4)c3)c(C(N)=O)c3nccn23)ccc1Cl | 17.7 | – | – | – | –
C=CC(=O)Nc1cccc(CN(C)c2nc(Nc3cc(OC)cc(OC)c3)c(C(N)=O)c3nccn23)c1 | -5.9 | – | – | – | –
C=CC(=O)Nc1cccc(CNc2nc(Nc3cc(OC)cc(OC)c3)c(C(N)=O)c3nccn23)c1F | 44.7 | – | 7000 | – | –
C=CC(=O)Nc1cc(CNc2nc(Nc3ccc(N4CCC(O)CC4)c(OC)c3)c(C(N)=O)c3nccn23)ccc1Cl | 47.1 | – | 1290 | Active | –
C=CC(=O)Nc1cc(CNc2nc(Nc3cc(OC)cc(OC)c3)c(C(N)=O)c3nccn23)ccc1F | 19.8 | 1.07 | > 10000 | – | –
C=CC(=O)Nc1cc(CNc2nc(Nc3ccc(N4CCOCC4)c(CO)c3)c(C(N)=O)c3nccn23)ccc1Cl | 40.2 | – | 4280 | – | –
C=CC(=O)Nc1ccc(F)c(CNc2nc(Nc3cc(OC)cc(OC)c3)c(C(N)=O)c3nccn23)c1 | 6.2 | – | – | – | –
C=CC(=O)Nc1cc(CNc2nc(Nc3ccc(N4CCN(C)CC4)c(OC)c3)c(C(N)=O)c3nccn23)ccc1Cl | 84 | – | 532 | Active | –
C=CC(=O)Nc1cc(CNc2nc(Nc3ccc(N4CCOCC4)cc3)c(C(N)=O)c3nccn23)ccc1Cl | 61.4 | – | 5530 | – | –
C=CC(=O)Nc1cccc(CNc2nc(Nc3cc(OC)cc(OC)c3)c(C(N)=O)c3nccn23)c1 | 15.4 | 4.23 | – | – | –
COc1cc(Nc2nc(NCc3cccc(NC(=O)CCl)c3)n3ccnc3c2C(N)=O)cc(OC)c1 | 20.7 | – | > 10000 | Active | 44.8
C=CC(=O)Nc1cc(CNc2nc(Nc3cc(OC)cc(OC)c3)c(C(N)=O)c3nccn23)ccc1C(F)(F)F | 0.5 | – | – | – | –
C=CC(=O)Nc1cc(CNc2nc(Nc3ccc(N4CCOCC4)c(NC(C)=O)c3)c(C(N)=O)c3nccn23)ccc1Cl | 18.8 | – | – | – | –
C=CC(=O)Nc1cc(CNc2nc(Nc3ccc(N4CCN(C5COC5)CC4)c(OC)c3)c(C(N)=O)c3nccn23)ccc1Cl | 87.5 | – | 598 | Active | –
